Several values for one entry are separate records, joined by “and”; a condition that tells them apart may be missing. Equal entries are not always repeated.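 Tested at 5 concentrations; 48 h exposure; 96-well plates; endpoints linearly interpolated, else capped at highest concentration. TGI: concentration producing complete growth inhibition.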 Where a SMILES comes first, the peptide text is derived from it. Side-chain parts run from the residue outwards. The star is where a group is joined. Cbz = O=C(OCc1ccccc1)*; Boc = CC(C)(C)OC(=O)*
Assays:
Assay in all cases: inhibition of tumour cell growth, NCI panel, 48 h
RPMI-8226 leukemia = tested on: RPMI-8226 leukemia
UACC-257 melanoma = tested on: UACC-257 melanoma
KM12 colon = tested on: KM12 colon
LOX IMVI melanoma = tested on: LOX IMVI melanoma
U251 CNS = tested on: U251 CNS
A549 NSCLC = tested on: A549 NSCLC
NCI-H460 lung = tested on: NCI-H460 lung
M14 melanoma = tested on: M14 melanoma
MDA-MB-435 = tested on: MDA-MB-435
PC-3 prostate = tested on: PC-3 prostate

Compound	TGI (RPMI-8226 leukemia)	TGI (UACC-257 melanoma) [µM]	TGI (KM12 colon) [µM]	TGI (LOX IMVI melanoma)	TGI (U251 CNS) [µM]	TGI (A549 NSCLC)	TGI (NCI-H460 lung) [µM]	TGI (M14 melanoma) [µM]	TGI (MDA-MB-435) [µM]	TGI (PC-3 prostate) [µM]
CCOC(OCC)C(CC)[Se]c1ccccc1 (configuration not stated)	57.5 µM	> 100	> 100	21.6 µM	> 100	> 100 µM	> 100	93.7	–	–
COc1ccc(C2=C(Cl)c3cc(OC)c(OC)cc3C2)cc1OC	> 100 µM	> 100	–	–	> 100	> 100 µM	–	> 100	–	–
Cc1ccc(C#CS(=O)(=O)C(F)(F)F)cc1	> 100 µM	> 100	> 100	> 31.6 µM	> 100	> 100 µM	> 100	–	–	–
Cc1ccc(NC(=O)/C(=N/NC(=O)C[N+](C)(C)C)c2nc3ccccc3[nH]c2=O)cc1	> 100 µM	> 100	–	> 100 µM	85.3	> 100 µM	> 100	> 100	–	–
Cn1cnc(SC2=C3C(=O)C=C4S[C@H]5C[C@]42c2c(c(O)c4c6c2=[N+]3CCC=6C=N4)N5)c1CC(N)C(=O)O (some centres not stated)	55.7 µM	29.9	37.8	26.1 µM	31.3	56.7 µM	> 100	29.1	–	–
OCC1OC(c2ccccc2)CC1O (configuration not stated)	–	> 100	> 100	> 100 µM	> 100	> 100 µM	> 100	> 100	> 100	–
CC(=O)c1[nH]c(Nc2ccc(C)cc2)c(C(=S)Nc2ccccc2)c1N	–	36.5	34.8	33.3 µM	29.9	30.7 µM	31.9	36.4	30.9	–
O=Cc1c(Br)[nH]c2ccccc12	> 100 µM	77.7	> 100	> 100 µM	> 100	> 100 µM	> 100	–	–	–
COc1ccc(CCCN2c3ccccc3Sc3ccccc32)cc1	> 100 µM	> 100	> 100	> 100 µM	> 100	> 100 µM	> 100	> 100	–	–
NC1=Nc2ccccc2Sc2nc3ccccc3n21	> 100 µM	> 100	> 100	> 100 µM	> 100	> 100 µM	> 100	82.4	–	> 100
COc1cc(C(O)C(=O)c2cnc3cc([N+](=O)[O-])ccc3n2)ccc1O (configuration not stated)	> 100 µM	> 100	> 100	> 100 µM	> 100	> 100 µM	> 100	> 100	–	–
CC(C)(C)OC(=O)NC(CCCCNC(=O)CNC(=O)OCc1ccccc1)C(=O)NC(CCCCNC(=O)CNC(=O)OCc1ccccc1)C(=O)NC(CCCCNC(=O)CNC(=O)OCc1ccccc1)C(=O)NC(CCCCNC(=O)CNC(=O)OCc1ccccc1)C(=O)O (configuration not stated) (Boc-K([Gly-Cbz])K([Gly-Cbz])K([Gly-Cbz])K([Gly-Cbz])-OH; configuration not given here)	> 100 µM	> 100	–	> 100 µM	> 100	> 100 µM	> 100	> 100	–	> 100
O=C(NN1C(=O)C(Cl)C1c1ccccc1Cl)c1ccccc1O (configuration not stated)	–	> 100	> 100	> 100 µM	> 100	> 100 µM	> 100	> 100	–	–
O=C(Nc1ccc(Sc2ccc(N=Nc3c(O)c(S(=O)(=O)O)cc4cc(S(=O)(=O)O)ccc34)cc2)cc1)c1ccc(N=Nc2c(O)c(S(=O)(=O)O)cc3cc(S(=O)(=O)O)ccc23)cc1	56.2 µM	> 100	> 100	34.5 µM	> 100	> 100 µM	27.7	91.8	–	–
Cn1nc2ccc3nccc(NCCNCCO)c3c2n1	> 100 µM	76.9	> 100	43.1 µM	> 100	> 100 µM	45.2	> 100	–	–
COc1cc2c(c(OC)c1OC)-c1ccc(SC)c(=O)cc1[C@@H](NCc1cccc([N+](=O)[O-])c1)CC2	–	> 100	0.0754	38.1 µM	< 0.01	> 100 µM	12.4	13.1	–	–
O=NN1C(c2ccccc2)CCCC1c1ccccc1 (configuration not stated)	> 100 µM	> 100	> 100	> 100 µM	> 100	> 100 µM	> 100	–	–	–
CC1=NN(C(=O)Cc2ccccc2)C(=O)/C1=C\c1ccccc1O	> 100 µM	> 100	> 100	> 100 µM	> 100	> 100 µM	> 100	> 100	–	–
COc1cc2c(c(OC)c1OC)-c1ccc(SC)c(=O)cc1[C@@H](NC(=O)c1ccc([N+](=O)[O-])cc1)CC2	25 µM and > 100 µM	–	–	25 µM and > 100 µM	–	25 µM and > 100 µM	0.0108	–	–	–
O=C(c1ccccc1O)c1cc(-c2ncc3c(=O)c4ccccc4oc3n2)c(-c2ccccc2O)[nH]c1=O	60.4 µM	47.1	> 80	39.1 µM	27.7	73.1 µM	60.9	–	–	–
